Reference: paper PMC9103184, “Kunitz-Type Peptides from Sea Anemones Protect Neuronal Cells against Parkinson’s Disease Inductors via Inhibition of ROS Production and ATP-Induced P2X7 Receptor Activation” (International Journal of Molecular Sciences, 2022)
Bridge positions count the residues as written; N and C are the ends. Ends that are not written are not given here.

Experiments:
TRPV1 = settings: cited from earlier work
6-OHDA-treated cells = settings: 6-OHDA model; cited from earlier work
trypsin [1] = biological target: T1, trypsin (Bos taurus, UniProt P00760); assay: Residual trypsin-inhibitory activity after heating; type: biochemical; settings: heating in the range from 60 °C to 100 °C; 7 μM peptide, 1.2 mM BAPNA, 37 °C, three parallel experiments
T1 sequence (P00760 24-246): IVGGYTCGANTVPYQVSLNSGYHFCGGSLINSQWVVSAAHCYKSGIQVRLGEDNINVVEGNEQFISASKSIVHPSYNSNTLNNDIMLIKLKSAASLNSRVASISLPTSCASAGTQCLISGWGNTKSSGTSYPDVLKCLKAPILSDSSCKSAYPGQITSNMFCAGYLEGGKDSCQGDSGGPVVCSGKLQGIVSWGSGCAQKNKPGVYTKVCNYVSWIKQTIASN
Procedure: Figure 6 The effects of temperature on the trypsin-inhibitory activity levels of peptides. Peptides were incubated at the temperatures for 30 min and their residual activities were measured.
The temperature influence on the activity levels of peptides was assessed by measuring their residual inhibitory activity levels. After preincubation at temperatures ranging from 25 to 100 °C for 25 min, the peptide solutions were added to trypsin solution and the reaction mixtures were incubated for 10 min at 37 °C, then 1.2 mM BAPNA was added, followed by incubation at 37 °C for 30 min. The final concentration of the peptides was 7 μM. Substrate hydrolysis was measured at 410 nm. The residual activity was calculated based on the results of three parallel experiments according to the following equation [60]:% = (1 − residual enzyme activity/enzyme activity without inhibitor) × 100

trypsin [2] = biological target: T1, trypsin; assay: Trypsin inhibition (BAPNA substrate, Dixon's method); type: biochemical; settings: BAPNA 0.6 and 1.2 mM, trypsin 208 nM, peptide 0–20 μM, three parallel experiments, read-out: trypsin inhibitory constant (Ki)
Procedure: The trypsin-inhibitory activity of HCIQ1c9 was estimated according to the standard procedure using N-α-benzoyl-D,L-arginine p-nitroanilide (BAPNA) (Sigma-Aldrich, St. Louis, MO, USA) as a substrate. The trypsin inhibition constant was determined using Dyxon’s method using substrate concentrations of 0.6 and 1.2 mM. The trypsin concentration was 208 nM. The range of peptide concentrations was 0–20 μM. The constant was calculated based on the results of three parallel experiments. Computational error limits were in the range of 0.1–0.3%.

Substance	activity on TRPV1 (TRPV1)	decrease in ROS production below the control (6-OHDA-treated cells)	decrease in trypsin-inhibitory activity after heating (trypsin [1])	Ki (trypsin [2])
HCRG21: Kunitz-type peptide from H. crispa, P0DL86; blocker of TRPV1 (RGICSEPKVVGPCTAYFRRFYFDSETGKCTPFIYGGCEGNGNNFETLRACRAICRA; UniProt P0DL86 1-56, looked up)	blocker of TRPV1	up to 87%		
IQGNICSEPKKVGRCRRSFPRFYFDSETGKCTPFIYGGCGGNGNNFETLHACRAICRA (disulfide 6-56, 15-39, 31-52) [HCIQ1c9]			30–70%	630 nM
